From PubChem BioAssay AID330 (DTP/NCI, 2004)
Several values for one entry are separate records, joined by “and”; a condition that tells them apart may be missing. Identical values can stand only once. Inconclusive results and toxic doses are left out. Rule for the calls: active = survival T/C of 150% or more; inactive = T/C below 125% in these data.

Test system: P388 leukemia ip, CD2F1 mice, survival T/C
Experiment: NCI In Vivo Anticancer Drug Screen. Data for tumor model P388 Leukemia (intraperitoneal) in CD2F1 (CDF1) mice
Conditions: endpoint: median survival time, higher = longer survival
Summary of the method: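 Mice carrying the transplanted tumor received test compound or vehicle. Survival was recorded in each group, and the value is the treated-group measurement divided by that of the vehicle-treated control group.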

[1] = dose: 25.0 mg/kg/injection, schedule: Q04DX002 (ip), vehicle: saline with Tween-80
[2] = dose: 50.0 mg/kg/injection, schedule: Q04DX002 (ip), vehicle: saline with Tween-80
[3] = dose: 100.0 mg/kg/injection, schedule: Q04DX002 (ip), vehicle: saline with Tween-80
[4] = dose: 6.25 mg/kg/injection, schedule: Q01DX009 (ip), vehicle: saline
[5] = dose: 12.5 mg/kg/injection, schedule: Q01DX009 (ip), vehicle: saline
[6] = dose: 0.5 mg/kg/injection, schedule: Q04DX003 (ip), vehicle: saline with Tween-80
[7] = dose: 60.0 mg/kg/injection, schedule: Q01DX005 (ip), vehicle: saline with Tween-80
[8] = dose: 120.0 mg/kg/injection, schedule: Q01DX005 (ip), vehicle: saline with Tween-80
[9] = dose: 240.0 mg/kg/injection, schedule: Q01DX005 (ip), vehicle: saline with Tween-80
[10] = dose: 50.0 mg/kg/injection, schedule: Q01DX009 (ip), vehicle: saline
[11] = dose: 50.0 mg/kg/injection, schedule: Q01DX005 (ip), vehicle: saline with Tween-80
[12] = dose: 100.0 mg/kg/injection, schedule: Q01DX005 (ip), vehicle: saline with Tween-80

Measured: T/C

[Cl][Pt+2][Cl].[NH-]c1ccc(C(=O)O)cc1[NH-]
inactive: dose: 6.25 mg/kg/injection, schedule: Q04DX002 (ip), vehicle: saline with Tween-80 100 % of control | dose: 12.5 mg/kg/injection, schedule: Q04DX002 (ip), vehicle: saline with Tween-80 102 % of control | [1] 100 % of control | [2] 110 % of control | [3] 120 % of control

COc1ccc(/C=N/N2CN(C(C)C(=O)O)B(NCCC(C)C)N=C2N)cc1OC (stereo unspecified)
inactive: dose: 60.0 mg/kg/injection, schedule: Q01DX005 (ip), vehicle: saline 104 % of control | dose: 120.0 mg/kg/injection, schedule: Q01DX005 (ip), vehicle: saline 105 % of control

c1ccc(Nc2ccncc2)cc1
inactive: dose: 1.56 mg/kg/injection, schedule: Q01DX009 (ip), vehicle: saline 95 % of control | dose: 3.12 mg/kg/injection, schedule: Q01DX009 (ip), vehicle: saline 95 % of control | [4] 100 % of control | [5] 100 % of control | dose: 25.0 mg/kg/injection, schedule: Q04DX003 (ip), vehicle: saline sonified 100 % of control | dose: 50.0 mg/kg/injection, schedule: Q04DX003 (ip), vehicle: saline sonified 90 % of control | dose: 100.0 mg/kg/injection, schedule: Q04DX003 (ip), vehicle: saline sonified 100 % of control

O=C(NC(C(=O)O)C1CC(Cl)=NO1)OCc1ccc([N+](=O)[O-])cc1 (stereo unspecified)
inactive: dose: 6.2 mg/kg/injection, schedule: Q04DX003 (ip), vehicle: other 108 % of control | dose: 12.5 mg/kg/injection, schedule: Q04DX003 (ip), vehicle: other 117 % of control

O=C(O)CCc1c[nH]c2ccc(N(CCCl)CCCl)cc12
inactive: dose: 0.15 mg/kg/injection, schedule: Q04DX003 (ip), vehicle: saline with Tween-80 100 % of control | dose: 0.25 mg/kg/injection, schedule: Q01DX009 (ip), vehicle: saline 104 % of control | dose: 0.75 mg/kg/injection, schedule: Q04DX003 (ip), vehicle: saline with Tween-80 104 % of control
active: dose: 0.08 mg/kg/injection, schedule: Q04DX003 (ip), vehicle: saline with Tween-80 163 % of control | dose: 0.33 mg/kg/injection, schedule: Q04DX003 (ip), vehicle: saline with Tween-80 177 % of control | [6] 177 % of control

CCOC(=O)CC(C)(O)C1CC1 (stereo unspecified)
inactive: dose: 25.0 mg/kg/injection, schedule: Q01DX009 (ip), vehicle: Klucel (hydroxypropylcellulose) (HPC) 96 % of control | dose: 50.0 mg/kg/injection, schedule: Q01DX009 (ip), vehicle: Klucel (hydroxypropylcellulose) (HPC) 101 % of control | dose: 100.0 mg/kg/injection, schedule: Q01DX009 (ip), vehicle: Klucel (hydroxypropylcellulose) (HPC) 105 % of control and 94 % of control | dose: 200.0 mg/kg/injection, schedule: Q01DX009 (ip), vehicle: Klucel (hydroxypropylcellulose) (HPC) 103 % of control and 122 % of control

O=c1nc(Oc2ccc(Cl)cc2Cl)oc2cc(Cl)ccc12
inactive: [7] 94 % of control | [8] 94 % of control

CC1(C)OCC2CCC=C21 (stereo unspecified)
inactive: [7] 92 % of control | [8] 99 % of control | [9] 97 % of control

N#CC1=C(C#N)Sc2nc3cc(Cl)ccc3nc2S1
inactive: [4] 109 % of control | [5] 115 % of control and 95 % of control | dose: 25.0 mg/kg/injection, schedule: Q01DX009 (ip), vehicle: saline 108 % of control | [10] 115 % of control

CN1C(=O)C2CC(=O)NC(=O)C2C1=O (stereo unspecified)
inactive: [11] 97 % of control | [12] 96 % of control | dose: 200.0 mg/kg/injection, schedule: Q01DX005 (ip), vehicle: saline with Tween-80 101 % of control

CCOC(=O)C(CC)C(O)(c1ccc2c(c1)OCO2)c1cc(OC)c(OC)c(OC)c1 (stereo unspecified)
inactive: dose: 50.0 mg/kg/injection, schedule: Q01DX005 (ip), vehicle: Klucel (hydroxypropylcellulose) (HPC) 96 % of control | dose: 100.0 mg/kg/injection, schedule: Q01DX005 (ip), vehicle: Klucel (hydroxypropylcellulose) (HPC) 94 % of control | dose: 200.0 mg/kg/injection, schedule: Q01DX005 (ip), vehicle: Klucel (hydroxypropylcellulose) (HPC) 93 % of control

NNS(=O)(=O)c1cc(C(=O)O)cc(C(=O)O)c1
inactive: dose: 100.0 mg/kg/injection, schedule: Q01DX001 (ip), vehicle: saline with Tween-80 109 % of control | dose: 200.0 mg/kg/injection, schedule: Q01DX001 (ip), vehicle: saline with Tween-80 100 % of control | dose: 400.0 mg/kg/injection, schedule: Q01DX001 (ip), vehicle: saline with Tween-80 90 % of control

NCCCn1[nH]c(=O)c2cccnc2c1=O
inactive: [7] 101 % of control | [8] 100 % of control | [9] 95 % of control

S=C1NCC(c2ccccc2)(c2ccccc2)N1
inactive: dose: 6.25 mg/kg/injection, schedule: Q04DX003 (ip), vehicle: Klucel (hydroxypropylcellulose) (HPC) 103 % of control | dose: 12.5 mg/kg/injection, schedule: Q04DX003 (ip), vehicle: Klucel (hydroxypropylcellulose) (HPC) 98 % of control

C=C1C(=O)C23C(OC(=O)c4ccc(Br)cc4)C1CCC2C12COC3(O)C(O)C1C(C)(C)CCC2O (stereo unspecified)
inactive: dose: 3.75 mg/kg/injection, schedule: Q01DX009 (ip), vehicle: saline with Tween-80 105 % of control and 106 % of control | dose: 7.5 mg/kg/injection, schedule: Q01DX009 (ip), vehicle: saline with Tween-80 105 % of control and 111 % of control | dose: 15.0 mg/kg/injection, schedule: Q01DX009 (ip), vehicle: saline with Tween-80 111 % of control and 120 % of control | dose: 30.0 mg/kg/injection, schedule: Q01DX009 (ip), vehicle: saline with Tween-80 119 % of control

CCC12CCCN3CCC4(c5ccc(OC)cc5N(C)C4C(O)(OC(C)=O)C1OC(C)O)C32 (stereo unspecified)
inactive: [11] 100 % of control | [12] 87 % of control

CC(C)c1c(CN(C)C(C)Cc2ccccc2)n(C)n(-c2ccccc2)c1=O (stereo unspecified)
inactive: [7] 108 % of control | [8] 105 % of control | [9] 98 % of control

N#Cc1c(N2CCOCC2)cc(-c2ccccc2)oc1=O
inactive: [1] 101 % of control | [2] 97 % of control | [3] 100 % of control

CC1CCC(C(C)C)C(NC(=O)c2cccnc2)C1 (stereo unspecified)
inactive: dose: 25.0 mg/kg/injection, schedule: Q04DX002 (ip), vehicle: Klucel (hydroxypropylcellulose) (HPC) 102 % of control | dose: 52.0 mg/kg/injection, schedule: Q04DX002 (ip), vehicle: Klucel (hydroxypropylcellulose) (HPC) 101 % of control | dose: 100.0 mg/kg/injection, schedule: Q04DX002 (ip), vehicle: Klucel (hydroxypropylcellulose) (HPC) 100 % of control | dose: 200.0 mg/kg/injection, schedule: Q04DX002 (ip), vehicle: Klucel (hydroxypropylcellulose) (HPC) 103 % of control

CN(C)c1ccc(/C=C/c2ccnc3ccccc23)c(F)c1
inactive: [10] 86 % of control | dose: 100.0 mg/kg/injection, schedule: Q01DX009 (ip), vehicle: saline 92 % of control | dose: 200.0 mg/kg/injection, schedule: Q01DX009 (ip), vehicle: saline 86 % of control

CCOC(=O)CN1CCC2CC1c1c([nH]c3ccccc13)C2c1cc2c(cc1OC)N(C)C1C(O)(C(=O)OC)C(OC(C)=O)C3(CC)C=CCN4CCC21C43 (stereo unspecified)
inactive: dose: 0.03 mg/kg/injection, schedule: Q04DX003 (ip), vehicle: saline with Tween-80 94 % of control | dose: 0.06 mg/kg/injection, schedule: Q01DX009 (ip), vehicle: Klucel (hydroxypropylcellulose) (HPC) 94 % of control | dose: 0.06 mg/kg/injection, schedule: Q04DX003 (ip), vehicle: saline with Tween-80 92 % of control | dose: 0.13 mg/kg/injection, schedule: Q01DX009 (ip), vehicle: Klucel (hydroxypropylcellulose) (HPC) 93 % of control | dose: 0.13 mg/kg/injection, schedule: Q04DX003 (ip), vehicle: saline with Tween-80 95 % of control | dose: 0.25 mg/kg/injection, schedule: Q04DX003 (ip), vehicle: saline with Tween-80 98 % of control | [6] 112 % of control | dose: 1.0 mg/kg/injection, schedule: Q01DX009 (ip), vehicle: Klucel (hydroxypropylcellulose) (HPC) 90 % of control | dose: 13.0 micrograms/kg/injection, schedule: Q01DX009 (ip), vehicle: Klucel (hydroxypropylcellulose) (HPC) 98 % of control | dose: 25.0 micrograms/kg/injection, schedule: Q01DX009 (ip), vehicle: Klucel (hydroxypropylcellulose) (HPC) 103 % of control | dose: 50.0 micrograms/kg/injection, schedule: Q01DX009 (ip), vehicle: Klucel (hydroxypropylcellulose) (HPC) 94 % of control | dose: 100.0 micrograms/kg/injection, schedule: Q01DX009 (ip), vehicle: Klucel (hydroxypropylcellulose) (HPC) 100 % of control | dose: 200.0 micrograms/kg/injection, schedule: Q01DX009 (ip), vehicle: Klucel (hydroxypropylcellulose) (HPC) 103 % of control
